{"source": "paper PMC3341351", "about": "“Down-Regulation of GABAA Receptor via Promiscuity with the Vasoactive Peptide Urotensin II Receptor. Potential Involvement in Astrocyte Plasticity” (PLoS ONE, 2012)", "molecules": {"B1": {"name": "UT^c-myc 319–389: peptidomimetic corresponding to the entire C-terminus cytosolic fragment of UT (protein, UniProt Q9UKP6 319-389, looked up, fragment)", "chain": "TRNYRDHLRGRVRGPGSGGGRGPVPSLQPRARFQRCSGRSLSSCSPQPTDSLVLAPAAPARPAPEGPRAPA", "modifications": "c-myc tag"}}, "assay_type_in_all_cases": "cell-based", "key": {"[1]": {"target": "T1, α2β3γ2 GABAAR co-expressed with human UT (Homo sapiens, UniProt Q9UKP6)", "T1 construct": "expressed in transfected cells; host or cells: CHO-K1 stably expressing human UT (pIRES-neo2-UT), transiently nucleofected with GABAAR subunit cDNAs", "T1 sequence (Q9UKP6 1-389)": "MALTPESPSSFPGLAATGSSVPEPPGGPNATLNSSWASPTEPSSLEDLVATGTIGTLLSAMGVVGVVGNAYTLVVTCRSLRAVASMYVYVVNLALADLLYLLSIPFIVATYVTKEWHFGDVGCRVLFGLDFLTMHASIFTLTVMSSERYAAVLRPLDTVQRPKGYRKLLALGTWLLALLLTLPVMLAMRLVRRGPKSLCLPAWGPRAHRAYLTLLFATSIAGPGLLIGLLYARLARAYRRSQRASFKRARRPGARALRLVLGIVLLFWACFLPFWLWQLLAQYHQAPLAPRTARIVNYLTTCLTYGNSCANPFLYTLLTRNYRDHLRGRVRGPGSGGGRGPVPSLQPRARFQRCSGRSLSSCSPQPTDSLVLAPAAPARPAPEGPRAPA", "experiment": "Patch-clamp of Iso-evoked current in CHO-UT co-expressing α2β3γ2 GABAAR (CHO-UT-GABAAR)", "details": "for Current inhibition by GABAAR antagonists: SR95531 10^−5 M, picrotoxin 10^−4 M", "protocol": "CHO-K1 cell lines were obtained from American Type Culture Collection (Manassas, VA, USA). The human UT stable CHO (CHO-UT) was generously provided by Dr Christophe Dubessy (Inserm, Rouen University, France) et generated by CHO electroporation with 20 µg pIRES-neo2-UT DNA and 500 µg sterile sonicated salmon sperm DNA using the EasyJect One electroporation system (Equibio, Angleur, Belgium), followed by repetitive rounds of limiting dilution of cells in G-418 (400 µg/ml) for selection. Normal or stable CHO was grown in Ham-F12 medium supplemented with 10% FBS, 1% antibiotic-antimicotic solution and 2 mM glutamine, at 37°C in a humidified incubator with an atmosphere of 5% CO2. The stable CHO-UT medium was supplemented with the antibiotic G-418 (40 µg/ml).\n(§1) For transfection, cells were trypsinized (0.05%), triturated in HamF-12 containing 10% FBS media, pelleted by centrifugation, resuspended in 100 µl solution V for nucleofection by an Amaxa Nucleofector Device (Köln, Germany; set to program U-016). Experiments were performed on normal CHO or on the stable CHO-UT cells and transiently transfected with combinations of cDNA encoding α2β3γ2, α2β3γ1, α2β1γ2, α2β3γ1, α2β3, β3γ2 (4 µg of cDNA total/transfection) GABAAR subunits. Cells were seeded on 14-mm poly-L-lysine-coated glass bottom insert dishes at 5×10^5 cells in a volume of 0.5 ml/dish. Cells were incubated overnight at 37°C in a humidified incubator (5% CO2) during 16 h before electrophysiological or immunocytochemical experiments.\n(§2) GABAA receptor cDNA clones; α2, β1, β3, γ1 and γ2L engineered into the expression vector pCDM8 ([…], β1, γ2) or pcDNA/Amp (β3, γ1), were generously provided by Dr Wingrove (Merk Sharp and Dohme, Harlow, UK). To obtain β3 ^HA or γ2 ^HA epitope-tagged subunits, β3 or γ2 cDNA was amplified and the PCR product was subcloned using the SalI and NotI sites of pCMV-HA (Table S2) after digestion by the same restriction enzymes.\n(§3) The conventional whole-cell configuration of the patch-clamp technique was used to study the GABA-gated currents in astrocytes and granule neurons, UT stably transfected CHO, CHO-UT, and CHO transiently transfected with diverse variants of UT and GABAAR subunits. After 24-h transfection, cell culture coverslips were placed in a small chamber (1.5 ml) on a stage of a right microscope DMLFSA (Leica, Heidelberg, Germany) and superfused continuously with the following bath solution containing (in mM): NaCl, 150; KCl, 2.5; HEPES, 5; CaCl2, 2; MgCl2, 1; glucose, 10 (pH 7.4 adjusted with NaOH). The patch pipettes were fabricated from 1.5 mm (outer diameter) soft glass tubes on a two-step vertical pipette puller (List-Medical, L/M-3P-A, Darmstadt, Germany). […] ATP and GTP were added to the internal solution used to fill electrode just before recording. All recordings were obtained at RT with cells voltage-clamped at −70 mV. The GABAA receptor agonist isoguvacine was prepared in the extracellular solution and was applied to cells by pneumatic pressure ejection. To prevent desenzitization, isoguvacine was more often ejected during 5 s at 2-min intervals. ATP, GTP, or guanosine 5′-O-(2-thiodiphosphate) (GDPβS) were administered through the patch pipette solution. We investigated the effect of competitive inhibition of GDP-GTP exchange by including GDPβS in the pipette solution (in addition to the normal amount of GTP). For GDPβS and the KIC, immediately following patch rupture, GABA current recordings were performed and the experiment was commenced after an equilibration period of 15 min.\nAll peptide ligands, inhibitors or allosteric modulators of the GABAA receptor function were applied via gravity through a plastic tubing positioned in the vicinity of the cell body in order to maintain a sustained perfusion. In these conditions, drugs could reach the cell of interest after 30 s of perfusion. Isoguvacine was applied focally by pneumatic pressure ejection from a micropipette."}, "[2]": {"target": "T2, GABAAR in cerebellar astrocytes (UT co-expressed) (Rattus norvegicus, UniProt P49684)", "T2 construct": "Astrocytes, recognized by strong GFAP staining show UT immunoreactivity; endogenous in cells; host or cells: primary rat (P7 Wistar) cerebellar astrocytes co-cultured with cerebellar granule neurons", "T2 sequence (P49684 1-386)": "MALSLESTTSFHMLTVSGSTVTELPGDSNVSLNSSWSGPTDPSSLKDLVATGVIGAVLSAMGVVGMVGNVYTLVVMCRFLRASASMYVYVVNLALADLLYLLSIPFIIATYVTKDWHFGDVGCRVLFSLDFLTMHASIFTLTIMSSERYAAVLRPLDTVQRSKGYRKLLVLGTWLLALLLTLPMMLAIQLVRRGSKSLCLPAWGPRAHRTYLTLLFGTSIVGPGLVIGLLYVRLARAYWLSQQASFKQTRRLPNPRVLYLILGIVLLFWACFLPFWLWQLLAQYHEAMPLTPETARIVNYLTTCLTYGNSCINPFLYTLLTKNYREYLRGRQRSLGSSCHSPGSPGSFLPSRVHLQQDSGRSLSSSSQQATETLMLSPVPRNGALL", "experiment": "Whole-cell patch-clamp of isoguvacine (Iso)-evoked depolarization/chloride current in cerebellar astrocytes co-cultured with granule neurons", "details": "for inhibition at 0.1 µM: rUII 10^−7 M, 40 s, Iso 10^−4 M, mean ± SEM, n = 5", "protocol": "Primary Cell Culture of astrocytes and astrocyte-neurone co-culture\nPrimary cultures of astrocytes were prepared as previously described. Briefly, cerebellum from 7-day-old (P7) Wistar rats were collected in DMEM/Ham-F12 (2∶1, v/v) culture medium supplemented with 2 mM glutamine, 1% insulin, 5 mM HEPES, 0.4% D(+)-glucose and 1% of the antibiotic-antimycotic solution. The tissues were disaggregated mechanically with a syringue equipped with a 1-mm gauge needle, and filtered through a 100-µm pore size mesh filter (Falcon, Becton Dickinson, Grenoble, France). Dissociated cells were resuspended in culture medium supplemented with 10% heat-inactivated FBS and seeded in 150-cm^2 culture flasks (Falcon) at a density of 20×10^6 cells/flask. Cells were incubated at 37°C in a humidified atmosphere (5% CO2) and the medium was changed twice a week. When cultures were confluent, the flasks were gently shaken on an orbital shaker at […] for 2 h. Dislodged cells were discarded and a second step of purification was performed at […] for 14–16 h. Remaining adhesive cells were collected by trypsination, centrifuged (800 g, 10 min) and plated in 150-cm^2 flasks. Suspended astrocytes were harvested and seeded in 24-well poly-L-lysine-coated plates. The purity of the cultures was previously assessed by counting the percentage of astrocytes immunostained with GFAP antibodies. The enriched cultures contained >99% astrocytes.\nFor astrocyte-neuron co-culture, granule cell cultures were prepared from cerebella of P7 Wistar rats as described previously. Isolated cells were plated on 14-mm culture dishes coated with poly-L-lysine (5 mM) at a density of 1.5×10^6 cells/dish and incubated at 37°C in a humidified atmosphere (5% CO2) for 1 to 10 days before use. Culture medium consisted of DMEM/Ham's F12 (75%/25%) supplemented with 10% FBS, 2 mM glutamine, 5 µg/ml insulin, 25 mM KCl and 1% of antibiotic-antimycotic solution. Co-cultures are obtained by seeding granule cells (1.5×10^6 cells/ml) on cerebellar astrocytes plated in 24-well plates after 12 hours. Co-cultures are maintained in the specific medium for neuron and incubated at 37°C in an humidified atmosphere (5% CO2) for several days.\nas §3, with “min. […]” for “min.”"}, "[3]": {"tested_on": "α2β3γ2 GABAAR in the absence of UT", "experiment": "Patch-clamp of Iso-evoked current in CHO expressing α2β3γ2 GABAAR without UT", "details": "DMCM 10^−5 M; hUII and URP 10^−8 M; [Orn^5]-URP and palosuran 10^−6 M; Iso 10^−4 M, 2 s; n = 3–18", "protocol": "as §1, §2\nas §3, with “min. […]” for “min.”"}}, "note": "Where two headings read alike, the source gives them in different places. Where a SMILES comes first, the peptide text is derived from it. Bridges are numbered along the chain shown (N, C = ends). [ ]: non-standard residue; d: D form. pGlu = O=C1CC[C@@H](C(=O)O)N1", "data": [{"molecule": "O=C(O)CN(CC(=O)O)c1ccccc1OCCOc1ccccc1N(CC(=O)O)CC(=O)O", "note": "[BAPTA]", "values": [{"measurement": "Reduction of hUII-induced long-term current inhibition", "setting": "[1]; BAPTA 10^−4 M intracellular dialysis, n = 9", "result": "39.29±10.16", "unit": "%"}]}, {"molecule": "CC[C@H](C)[C@H](NC(=O)[C@@H]1CSSC[C@H](NC(=O)[C@H](CCC(=O)O)NC(=O)[C@@H]2CCCN2C(=O)[C@H](C)NC(=O)[C@@H](NC(=O)CNC(=O)[C@H](Cc2c[nH]cn2)NC(=O)[C@@H]2CCC(=O)N2)[C@@H](C)O)C(=O)N[C@@H](Cc2ccccc2)C(=O)N[C@@H](Cc2c[nH]c3ccccc23)C(=O)N[C@@H](CCCCN)C(=O)N[C@@H](Cc2ccc(O)cc2)C(=O)N1)C(=O)O", "note": "[rUII] ([pGlu]HGTAPECFWKYCI-OH; disulfide 8-13)", "values": [{"measurement": "EC50", "setting": "[2]; astrocytes, printed with a % sign before pM, read-out: EC50 for inhibition of the Iso-evoked current", "result": "43.6 ± 23.7", "unit": "pM"}, {"measurement": "inhibition at 0.1 µM", "setting": "[2]; co-cultured astrocytes, read-out: Inhibition of the amplitude of the Iso-evoked depolarization", "result": "24.2 ± 7.5", "unit": "%"}, {"measurement": "inhibition at 0.1 µM", "setting": "[2]; voltage clamp −60 mV, read-out: Inhibition of the amplitude of the Iso-evoked chloride current", "result": "33 ± 8", "unit": "%"}]}, {"molecule": "CCCC(C)C1(CC)C(=O)NC(=O)NC1=O", "note": "(stereo not shown) [pentobarbital]", "values": [{"measurement": "Direct activation of chloride current", "setting": "[1]; pentobarbital 10^−5 M, Figure S1A", "result": "directly activated a chloride current"}, {"measurement": "Potentiation of the Iso-evoked current", "setting": "[1]; pentobarbital 10^−5 M, reversible, Figure S1A", "result": "196.28±12.33", "unit": "%"}]}, {"molecule": "picrotoxin", "values": [{"measurement": "Current inhibition by GABAAR antagonists", "setting": "[1]; Figure S1A", "result": "56.76±4.33", "unit": "%"}]}, {"molecule": "Br.COc1ccc(-c2ccc(=N)n(CCCC(=O)O)n2)cc1", "note": "[SR95531]", "values": [{"measurement": "Current inhibition by GABAAR antagonists", "setting": "[1]; Figure S1A", "result": "76.92±10.35", "unit": "%"}]}, {"molecule": "CCc1c(C(=O)OC)ncc2[nH]c3cc(OC)c(OC)cc3c12", "note": "[DMCM, methyl 6,7-dimethoxy-4-ethyl-β-carboline-3-carboxylate]", "values": [{"measurement": "Effect on Iso-evoked current in the absence of UT", "setting": "[3]", "result": "induced inhibition of the current in most tested cells"}]}, {"molecule": "B1", "values": [{"measurement": "Effect of UT C-terminal peptidomimetic on fast and long-term effects of hUII on GABA-evoked current", "setting": "[1]; UT^c-myc 319–389 expressed in CHO-UT-GABAAR, hUII 10^−8 M", "result": "completely inhibited the fast and long-term effects of hUII on the GABA-evoked current"}]}]}
